Experimental data as given in ChEMBL document CHEMBL4602723, “Stalobacin: Discovery of Novel Lipopeptide Antibiotics with Potent Antibacterial Activity against Multidrug-Resistant Bacteria” (J Med Chem, 2020).
In brackets after ≈: the same amount, converted by molar mass. Activity calls are given as the source filed them. The calls are words filed in the database; no cut-off is given here.

Assays:
Staphylococcus aureus [1] = experiment: Antibacterial activity against Vancomycin-resistant Staphylococcus aureus HIP11714 assessed as inhibition of bacterial growth incubated for 20 hrs by microdilution broth method; format: functional; conditions: HIP11714, 20 h
Staphylococcus aureus [2] = experiment: Antibacterial activity against Vancomycin-resistant Staphylococcus aureus HIP11983 assessed as inhibition of bacterial growth incubated for 20 hrs by microdilution broth method; format: functional; conditions: HIP11983, 20 h
Enterococcus faecalis [3] = experiment: Antibacterial activity against Enterococcus faecalis SR1004 assessed as inhibition of bacterial growth incubated for 20 hrs by microdilution broth method; format: functional; conditions: SR1004, 20 h
Enterococcus faecalis [4] = experiment: Antibacterial activity against Vancomycin-resistant Enterococcus faecalis SR7914 (VanA) assessed as inhibition of bacterial growth incubated for 20 hrs by microdilution broth method; format: functional; conditions: SR7914, 20 h
Enterococcus faecalis [5] = experiment: Antibacterial activity against Vancomycin-resistant Enterococcus faecalis SR23630 (VanB) assessed as inhibition of bacterial growth incubated for 20 hrs by microdilution broth method; format: functional; conditions: SR23630, 20 h
Enterococcus faecium [6] = experiment: Antibacterial activity against Vancomycin-resistant Enterococcus faecium SR7940 (VanA) assessed as inhibition of bacterial growth incubated for 20 hrs by microdilution broth method; format: functional; conditions: SR7940, 20 h
Enterococcus faecium [7] = experiment: Antibacterial activity against Vancomycin-resistant Enterococcus faecium SR23598 (VanB) assessed as inhibition of bacterial growth incubated for 20 hrs by microdilution broth method; format: functional; conditions: SR23598, 20 h
Enterococcus faecium [8] = experiment: Antibacterial activity against Vancomycin-resistant Enterococcus faecium SRM1101 (c_VanB) assessed as inhibition of bacterial growth incubated for 20 hrs by microdilution broth method; format: functional; conditions: SRM1101, 20 h
Streptococcus pneumoniae [9] = experiment: Antibacterial activity against Streptococcus pneumoniae type 1 assessed as inhibition of bacterial growth incubated for 20 hrs by microdilution broth method; format: functional; conditions: type 1, 20 h
Streptococcus pneumoniae [10] = experiment: Antibacterial activity against Streptococcus pneumoniae SR11031 (PRSP) assessed as inhibition of bacterial growth incubated for 20 hrs by microdilution broth method; format: functional; conditions: SR11031, 20 h
Streptococcus pneumoniae [11] = experiment: Antibacterial activity against Streptococcus pneumoniae tupelo (VTSP) assessed as inhibition of bacterial growth incubated for 20 hrs by microdilution broth method; format: functional
Escherichia coli [12] = experiment: Antibacterial activity against Escherichia coli JC2 assessed as inhibition of bacterial growth incubated for 20 hrs by microdilution broth method; format: functional; conditions: JC2, 20 h
Klebsiella pneumoniae = experiment: Antibacterial activity against Klebsiella pneumoniae SR1 assessed as inhibition of bacterial growth incubated for 20 hrs by microdilution broth method; format: functional; conditions: SR1, 20 h
Staphylococcus aureus [13] = experiment: Potency index, ratio of MIC for vancomycin to MIC for test compound for antibacterial activity against methicillin-resistant Staphylococcus aureus SR3637; format: functional
Staphylococcus aureus [14] = experiment: Potency index, ratio of MIC for linezolid to MIC for test compound for antibacterial activity against methicillin-resistant Staphylococcus aureus SR3637; format: functional
Staphylococcus aureus [15] = experiment: Potency index, ratio of MIC for telavancin to MIC for test compound for antibacterial activity against methicillin-resistant Staphylococcus aureus SR3637; format: functional
P388 = experiment: Cytotoxicity in mouse P388 cells assessed as reduction in cell viability; format: cell-based
L1210 = experiment: Cytotoxicity in mouse L1210 cells assessed as reduction in cell viability; format: cell-based
Staphylococcus aureus [16] = experiment: Induction of morphological changes in Staphylococcus aureus RN4220 assessed as inflation of bacterial cell body; format: functional, organism-based
Escherichia coli [17] = experiment: Induction of morphological changes in Escherichia coli JC2 assessed as inflation of bacterial cell body; format: functional, organism-based
Staphylococcus aureus [18] = experiment: Antibacterial activity against Staphylococcus aureus SMITH assessed as inhibition of bacterial growth incubated for 20 hrs by microdilution broth method; format: functional
Staphylococcus aureus [19] = experiment: Antibacterial activity against Staphylococcus aureus RN4220 assessed as inhibition of bacterial growth incubated for 20 hrs by microdilution broth method; format: functional; conditions: RN4220, 20 h
Staphylococcus aureus [20] = experiment: Antibacterial activity against methicillin-resistant Staphylococcus aureus SR3637 assessed as inhibition of bacterial growth incubated for 20 hrs by microdilution broth method; format: functional; conditions: SR3637, 20 h
Enterococcus faecium [21] = experiment: Antibacterial activity against Enterococcus faecium SR16972 assessed as inhibition of bacterial growth incubated for 20 hrs by microdilution broth method; format: functional; conditions: SR16972, 20 h

| SMILES | MIC (Staphylococcus aureus [1]) | MIC (Staphylococcus aureus [2]) | MIC (Enterococcus faecalis [3]) | MIC (Enterococcus faecalis [4]) | MIC (Enterococcus faecalis [5]) | MIC (Enterococcus faecium [6]) | MIC (Enterococcus faecium [7]) | MIC (Enterococcus faecium [8]) | MIC (Streptococcus pneumoniae [9]) | MIC (Streptococcus pneumoniae [10]) | MIC (Streptococcus pneumoniae [11]) | MIC (Escherichia coli [12]) | MIC (Klebsiella pneumoniae) | MIC (Staphylococcus aureus [18]) | MIC (Staphylococcus aureus [19]) | MIC (Staphylococcus aureus [20]) | MIC (Enterococcus faecium [21]) | further results |
| --- | --- | --- | --- | --- | --- | --- | --- | --- | --- | --- | --- | --- | --- | --- | --- | --- | --- | --- |
| CN[C@H](CC(C)C)C(=O)N[C@H]1C(=O)N[C@@H](CC(N)=O)C(=O)N[C@H]2C(=O)N[C@H]3C(=O)N[C@H](C(=O)N[C@H](C(=O)O)c4cc(O)cc(O)c4-c4cc3ccc4O)[C@H](O)c3ccc(c(Cl)c3)Oc3cc2cc(c3O[C@@H]2O[C@H](CO)[C@@H](O)[C@H](O)[C@H]2O[C@H]2C[C@](C)(N)[C@H](O)[C@H](C)O2)Oc2ccc(cc2Cl)[C@H]1O [VANCOMYCIN] | > 64 µg/mL | > 64 µg/mL | 1 µg/mL (≈ 0.69 µM) | > 64 µg/mL | 32 µg/mL (≈ 22.1 µM) | > 64 µg/mL | > 64 µg/mL | > 64 µg/mL | 0.5 µg/mL (≈ 0.345 µM) | 0.25 µg/mL (≈ 0.173 µM) | 0.25 µg/mL (≈ 0.173 µM) | > 64 µg/mL | > 64 µg/mL | – | – | – | – | – |
| CCCCCC/C=C\CCCCC[C@@H]1C[C@H]1/C=C/C(O)C(=O)N[C@H](C(=O)N(C)[C@@H](CC(=O)O)C(=O)N(COC(C)(CC)C(NC(=O)C(NC(=O)[C@@H](N)CC(=O)O)C(O)C(O)CNC(=N)N)C(=O)NCC(=O)N[C@@H](CO)C(=O)O)[C@@]12C[C@@H]1CN(C(=N)N)C2=O)[C@H](O)C(=O)O (stereo partly drawn) | 0.004 µg/mL (≈ 0.00302 µM) | 0.004 µg/mL (≈ 0.00302 µM) | 0.008 µg/mL (≈ 0.00604 µM) | 0.016 µg/mL (≈ 0.0121 µM) | 0.004 µg/mL (≈ 0.00302 µM) | 0.004 µg/mL (≈ 0.00302 µM) | 0.004 µg/mL (≈ 0.00302 µM) | 0.004 µg/mL (≈ 0.00302 µM) | ≤ 0.004 µg/mL | ≤ 0.004 µg/mL | ≤ 0.004 µg/mL | 4 µg/mL (≈ 3.02 µM) | 1 µg/mL (≈ 0.754 µM) | 0.004 µg/mL (≈ 0.00302 µM) | 0.004 µg/mL (≈ 0.00302 µM) | 0.008 µg/mL (≈ 0.00604 µM) | 0.004 µg/mL (≈ 0.00302 µM) | Ratio (Staphylococcus aureus [13]): 125 - 250; Ratio (Staphylococcus aureus [14]): 125 - 250; Ratio (Staphylococcus aureus [15]): 125 - 250; IC50 (P388): > 12.5 µg/mL; IC50 (L1210): > 12.5 µg/mL; Activity (Staphylococcus aureus [16]): Active; Activity (Escherichia coli [17]): Active |
| CC(=O)NC[C@H]1CN(c2ccc(N3CCOCC3)c(F)c2)C(=O)O1 [LINEZOLID] | – | – | – | – | – | 2 µg/mL (≈ 5.93 µM) | 2 µg/mL (≈ 5.93 µM) | 2 µg/mL (≈ 5.93 µM) | – | – | – | – | – | – | – | – | 2 µg/mL (≈ 5.93 µM) | – |
| CCCCCCCCCCNCCN[C@@]1(C)C[C@H](O[C@H]2[C@H](Oc3c4cc5cc3Oc3ccc(cc3Cl)[C@@H](O)[C@@H](NC(=O)[C@@H](CC(C)C)NC)C(=O)N[C@@H](CC(N)=O)C(=O)N[C@H]5C(=O)N[C@H]3C(=O)N[C@H](C(=O)N[C@H](C(=O)O)c5cc(O)c(CNCP(=O)(O)O)c(O)c5-c5cc3ccc5O)[C@H](O)c3ccc(c(Cl)c3)O4)O[C@H](CO)[C@@H](O)[C@@H]2O)O[C@@H](C)[C@H]1O [TELAVANCIN] | 4 µg/mL (≈ 2.28 µM) | 4 µg/mL (≈ 2.28 µM) | 1 µg/mL (≈ 0.57 µM) | 4 µg/mL (≈ 2.28 µM) | 1 µg/mL (≈ 0.57 µM) | 8 µg/mL (≈ 4.56 µM) | 0.5 µg/mL (≈ 0.285 µM) | 8 µg/mL (≈ 4.56 µM) | ≤ 0.063 µg/mL | ≤ 0.063 µg/mL | ≤ 0.063 µg/mL | – | – | 0.5 µg/mL (≈ 0.285 µM) | 0.5 µg/mL (≈ 0.285 µM) | 1 µg/mL (≈ 0.57 µM) | 0.5 µg/mL (≈ 0.285 µM) | – |
| CCCCCC/C=C\CCCCC[C@@H]1C[C@H]1/C=C/C(O)C(=O)N[C@H](C(=O)N(C)[C@@H](CC(=O)O)C(=O)N(COC(C)(CC)C(NC(=O)C(NC(=O)[C@@H](N)CC(=O)O)C(O)C(O)CNC(=N)N)C(=O)NCC(=O)N[C@@H](CO)C(=O)O)[C@@]12C[C@@H]1CNC2=O)[C@H](O)C(=O)O (stereo partly drawn) | 0.5 µg/mL (≈ 0.39 µM) | 1 µg/mL (≈ 0.779 µM) | > 64 µg/mL | > 64 µg/mL | > 64 µg/mL | 2 µg/mL (≈ 1.56 µM) | 1 µg/mL (≈ 0.779 µM) | 1 µg/mL (≈ 0.779 µM) | 0.25 µg/mL (≈ 0.195 µM) | 0.25 µg/mL (≈ 0.195 µM) | ≤ 0.004 µg/mL | 4 µg/mL (≈ 3.12 µM) | 2 µg/mL (≈ 1.56 µM) | 0.5 µg/mL (≈ 0.39 µM) | 0.5 µg/mL (≈ 0.39 µM) | 1 µg/mL (≈ 0.779 µM) | 4 µg/mL (≈ 3.12 µM) | – |
